Entries after “also recorded” stand apart in the source; their conditions may differ. Like-named read-outs stand apart in the source and are kept apart here.
Columns and labels:
NT2 precursor cells [1] = test: cells; format: cell-based, human; conditions: for IC50: read-out: IC50 migration (spec. EP); for Rescue by NAC, migration / Rescue by Y-27632, migration: yes = at least one concentration of rescuing compound with specific endpoint significantly less affected
Description: (§1) As established before (Stern et al. [2014]), NT2 precursor cells were seeded in 96-mm bacteriological grade Petri dishes (Greiner, Hamburg, Germany) at a density of 4 × 10^6–5 × 10^6 cells per dish. Within 24 h, cells formed free-floating spherical aggregates of 300–800 µm diameter. On the first day, 10 ml of culture medium was added to each Petri dish. On the next days, medium with 10 μM retinoic acid (RA) was added and changed every 2–3 days by transferring the cell suspension to centrifuge tubes and centrifuge at 200 × g for 7 min. After 9 days in culture, aggregates were gently resuspended using a Pasteur pipette, and seeded at 60,000 cells per well into black 96-well plates with flat transparent bottom (Nunc). Plates were lined with poly-D-lysine and laminin (10 µg/ml each), equipped with silicone stoppers from the Oris Cell Migration Assay (AMS Biotechnology, Abingdon, UK). Cells were allowed to adhere overnight. On the next day, stoppers were pulled leaving a monolayer of cells with a circular hole of 2-mm diameter. […] After one wash in PBS, cells were fixed for 15 min in PFA, washed twice in PBS-T and stained with DAPI (0.5 µg/ml) for 5 min, followed by two washes in PBS. A black 96-hole plastic mask leaving a central circular area of 2-mm diameter for each well was clipped to the bottom of the plate. This allows viewing only those cells that had migrated into the free areas left by the silicone stoppers during seeding (Fig. 1b). Migration was quantified by taking two photographs of each well and measuring the distance of the migration front from the black margin of the mask in using ImageJ. Occasional asymmetries caused by slight inaccuracies of silicone stopper placement were compensated by averaging measurements in four quadrants per well. […] Average null-migration values were subtracted from migrated distance before evaluation.

in vitro = conditions: human
Description: (§3) Dispersed cells were seeded into two identical poly-D-lysine (10 µg/ml) coated 96-well plates (Corning Costar, Kaiserslautern, Germany) at a density of 10,000 cells per well. Cultures were exposed to up to seven different concentrations of a test compound in DMEM/F12 (six technical replicates per concentration) for 24 h. One plate was immediately fixed in 4% paraformaldehyde in PBS (PFA) for 15 min. After 24 h, while a resazurin reduction assay (2 h) was performed on the other plate. […] Fixed cells were washed in PBS containing 0.1% Triton X100 (PBS-T) and immunolabeled for ß-tubulin type III (monoclonal anti ßtubIII, 1:20,000) using a red fluorescent secondary antibody (goat anti mouse-alexaFluor568, Invitrogen, Germany, 1:250) and DAPI (0.1 µg/ml) as nuclear counterstain. Cells were examined on a Zeiss Axiovert 200 inverted microscope equipped with a CoolSnap camera (Photometrics, Tucson, AZ, USA) and MetaMorph software (Molecular Devices, Sunnyvale, CA, USA), or a Zeiss Axiocam50 mono and Zeiss ZENlite 2.6 blue edition software. Two photographs/well at × 20 magnification were taken. Lengths of all neurites in the field of view were measured in ImageJ (http://imagej.nih.gov/ij) using the ‚segmented line ‘ tool (Fig. 1c) and divided by the number of ß-tubulin III-positive cells.

[2] = cited from earlier work
[3] = Resazurin reduction viability assay in the neuronal differentiation assay; format: cell-based, human; conditions: human
Description: (§2) As established in our previous study (Stern et al. [2014]), cells were seeded into 96-well plates (Corning Costar, Kaiserslautern, Germany) at 80,000 cells per well and incubated in DMEM/F12 with 10 µM retinoic acid (RA) for 4 days (one media change). Cells were incubated for further 5 days (one media change) in media containing 10 µM RA and up to seven concentrations of a test compound. On day 9 (5-day exposition), cell viability was measured using a resazurin reduction assay (Trinova Biochem, Giessen, Germany). Subsequently, cells were fixed for 15 min in PFA and immunolabeled for ß-tubulin type III as above (Fig. 1a). For control purposes, photographs were taken at × 20 magnification as above. Neuronal differentiation was determined by measuring red fluorescence (excitation 568 nm, emission 603 nm) in a multiwell-plate reader (Infinite 200, TECAN, Germany). As a confirmation of the viability data, cell number was also quantified by measuring DAPI fluorescence (excitation 350 nm, emission 488 nm).

NT2 neurons = test: cells; format: cell-based, human; conditions: for Effect on neurite outgrowth, endpoint specific control compounds: concentration-response curves, supplementary Fig. 1
Source text: Two photographs/well at × 20 magnification were taken.

[4] = Resazurin reduction viability assay in the cell migration assay; format: cell-based; conditions: human
Description: as §1

[5] = tested on: differentiating NT2 cells; test: cells; format: cell-based, human; conditions: for IC50: NT2, 120 h, read-out: IC50 neuronal differentiation (ß-tub III, spec. EP)
Description: as §2

NT2 precursor cells [6] = conditions: 100 nM cytochalasin D, 44 h, without affecting viability; ref Stern et al. [2014]; cited from earlier work
neurospheres = tested on: neurospheres; parameters: method as in Ishido and Suzuki ([2010]); conditions: general cytotoxicity not tested; ref Ishido and Suzuki ([2010]); read-out: IC50 cell migration out of neurospheres; cited from earlier work
[7] = tested on: NT2 cells treated for 2 weeks with retinoic acid (2wkRA); conditions: […]
Description: as §3

[8] = human
Description: as §3

[9] = tested on: differentiating NT2 cells; test: Resazurin reduction viability assay in the neuronal differentiation assay; format: cell-based, human; conditions: differentiation assay
Description: as §2

[10] = tested on: differentiating NT2 cells; parameters: method as in Stern et al. [2014]; conditions: 333 µM sodium valproate; ref Stern et al. [2014]; cited from earlier work
[11] = tested on: differentiating NT2 cells; conditions: 333 µM sodium valproate; ref Stern et al. [2014]; cited from earlier work
[12] = migration assay, 44 h exposure, > = highest tested concentration, read-out: IC50 general cytotoxicity (resazurin), unspec. EP
[13] = yes = at least one concentration of rescuing compound with specific endpoint significantly less affected
[14] = co-applied with 2.4 µM rotenone
[15] = yes = at least one concentration of rescuing compound with specific endpoint significantly less affected than by test compound alone

N#Cc1nn(-c2c(Cl)cc(C(F)(F)F)cc2Cl)c(N)c1S(=O)(=O)C(F)(F)F [Fipronil sulfone, 5-Amino-1-[2,6-dichloro-4-(trifluoromethyl)phenyl]-4-(trifluoromethylsulfonyl)pyrazole-3-carbonitrile]
Concentrations with significant differences between viability and migration (NT2 precursor cells [1]; 44 h exposure): ≥ 15.63 µM | activity at 15.63 µM (NT2 precursor cells [1]; Homo sapiens, 15.63 µM fipronil sulfone, read-out: Migration (% of control)): < 40% | IC50 (NT2 precursor cells [1]; Homo sapiens, 44 h exposure): 14.2 µM | Rescue by NAC, migration (NT2 precursor cells [1]): yes | Rescue by Y-27632, migration (NT2 precursor cells [1]): Yes | IC50 (in vitro): 43 µM | Blood concentration in workers with occupational fipronil exposure ([2]; ref Herin et al. [2011]): up to 0.1 µM | Concentration measured in umbilical cord blood ([2]; urban population of South Korea, ref Kim et al. [2019]): up to 1.1 nM | viability ([3]; 7.81 µM fipronil sulfone, read-out: General viability (% of control)): ~100% | IC50 ([3]; differentiation assay, 5 days exposure, read-out: IC50 general cytotoxicity (resazurin), unspec. EP): 15.5 µM | IC50 (NT2 neurons; Homo sapiens, 24 h exposure, total neurite length/neuron, normalized to solvent control, read-out: IC50 neurite outgrowth (spec. EP)): 34 µM | viability ([4]; 15.63 µM fipronil sulfone, read-out: Viability (% of control)): 85% | IC50 [4, 12]: > 62.5 µM | IC50 ([5]; Homo sapiens, 5 days exposure): 9.77 µM | activity at 7.81 µM ([5]; Homo sapiens, NT2, 7.81 µM fipronil sulfone, read-out: Neuronal differentiation (% of control)): 70% | Rescue by NAC, neuronal differentiation [5, 13]: no

COc1cc2c(c(OC)c1OC)-c1ccc(OC)c(=O)cc1[C@@H](NC(C)=O)CC2 [Colchicine]
Effect on neurite outgrowth, endpoint specific control compounds (NT2 neurons): specifically inhibits neurite outgrowth

C[C@@H](N)[C@H]1CC[C@H](C(=O)Nc2ccncc2)CC1 [Y-27632, 4-[(1R)-1-Aminoethyl]-N-pyridin-4-ylcyclohexane-1-carboxamide]
activity at 50 µM (NT2 precursor cells [1]; Homo sapiens, 50 µM Y-27632, without affecting general viability, read-out: Precursor cell migration (% of control), endpoint-specific control): > 125% | EC50 (NT2 precursor cells [1]; Homo sapiens, co-applied with 122 nM rotenone, read-out: EC50 alleviation of rotenone-inhibited migration): 8.3 µM | EC50 (NT2 precursor cells [1]; Homo sapiens, co-applied with 15 µM fipronil sulfone, read-out: EC50 alleviation of fipronil sulfone-inhibited migration (Y-27632)): 4.22 µM | Effect on fipronil-induced inhibition of migration (NT2 precursor cells [1]; co-applied with 50 µM fipronil): could not alleviate; also recorded: could not be alleviated | activity at 50 µM (NT2 neurons; Homo sapiens, Neuron, 50 µM Y-27632, without affecting general viability, read-out: Neurite outgrowth (% of control), endpoint-specific control): > 125% | EC50 (NT2 neurons; Homo sapiens, Neuron, co-applied with 2.4 µM rotenone, read-out: EC50 compensation of rotenone-inhibited neurite outgrowth): 12.1 µM | Effect on rotenone-induced NT2 neurite outgrowth inhibition (NT2 neurons; [14]): could alleviate

C=C1[C@@H](C)[C@H]2[C@H](Cc3ccccc3)NC(=O)[C@]23[C@H](OC(C)=O)/C=C/[C@@](C)(O)C(=O)[C@@H](C)C/C=C/[C@H]3[C@@H]1O [Cytochalasin D, [(1R,2R,3E,5R,7S,9E,11R,12S,14S,15R,16S)-16-Benzyl-5,12-dihydroxy-5,7,14-trimethyl-13-methylidene-6,18-dioxo-17-azatricyclo[9.7.0.0^1,15]octadeca-3,9-dien-2-yl] acetate]
activity at 0.1 µM (NT2 neurons; Homo sapiens, Neuron, 100 nM cytochalasin D, read-out: Neurite outgrowth (% of control), endpoint-specific control): < 25% | Effect on neurite outgrowth, endpoint specific control compounds (NT2 neurons): specifically inhibits neurite outgrowth | Effect on cell motility, null-migration reference (NT2 precursor cells [6]): completely inhibits cell motility

CC(C)=CCC/C(C)=C/CC/C(C)=C/CC[C@]1(C)CCc2c(C)c(O)c(C)c(C)c2O1 [α-tocotrienol, (2R)-2,5,7,8-Tetramethyl-2-[(3E,7E)-4,8,12-trimethyltrideca-3,7,11-trienyl]-3,4-dihydrochromen-6-ol]
Effect on rotenone-induced NT2 neurite outgrowth inhibition (NT2 neurons; [14]): could not change

CC(=O)N[C@@H](CS)C(=O)O [NAC, (2R)-2-Acetamido-3-sulfanylpropanoic acid]
EC50 (NT2 precursor cells [1]; Homo sapiens, all three tested endpoints as worded in abstract, read-out: EC 50 ameliorating the inhibitory effects of fipronil on all three tested endpoints (abstract)): 84 to 164 µM | EC50 (NT2 precursor cells [1]; Homo sapiens, co-applied with 15 µM fipronil sulfone, only slight alleviation, read-out: EC50 alleviation of fipronil sulfone-inhibited migration (NAC)): 84.6 µM | EC50 (NT2 precursor cells [1]; Homo sapiens, co-applied with 50 µM fipronil, read-out: EC50 alleviation of fipronil-inhibited migration): 161 µM | Effect on rotenone inhibition of migration (NT2 precursor cells [1]; co-applied with 122 nM rotenone, any concentration): could not be alleviated | Effect on fipronil sulfone inhibition of migration (NT2 precursor cells [1]; co-applied with 15 µM fipronil sulfone): only slightly alleviated | Effect on fipronil-induced inhibition of migration (NT2 precursor cells [1]; co-applied with 50 µM fipronil): could completely counteract | Effect on rotenone-induced NT2 neurite outgrowth inhibition (NT2 neurons; [14]): could not change | Effect on fipronil inhibition of NT2 differentiation ([5]; 370 µM NAC and higher, with 15 µM fipronil): completely negated | EC50 ([5]; Homo sapiens, NT2, co-applied with 15 µM fipronil, read-out: EC50 rescue of fipronil-inhibited neuronal differentiation): 94.7 µM | Effect on rotenone inhibition of ß-tubulin III-immunofluorescence ([5]; co-applied with 11 nM rotenone, any concentration): could not alleviate

C=C(C)[C@H]1Cc2c(ccc3c2O[C@@H]2COc4cc(OC)c(OC)cc4[C@@H]2C3=O)O1 [Rotenone, (1S,6R,13S)-16,17-Dimethoxy-6-prop-1-en-2-yl-2,7,20-trioxapentacyclo[11.8.0.0^3,11.0^4,8.0^14,19]henicosa-3(11),4(8),9,14,16,18-hexaen-12-one]
Concentration at which a significant reduction of migration could already be observed (NT2 precursor cells [1]; 44 h exposure): 4.12 nM | IC50 (NT2 precursor cells [1]; Homo sapiens, 44 h): 0.051 µM | Rescue by NAC, migration (NT2 precursor cells [1]): no | Rescue by Y-27632, migration (NT2 precursor cells [1]): Yes | IC50 (neurospheres): ~0.2 µM | Highest non-cytotoxic concentration (viability > 90%) [7]: 123 nM | IC50 at 24 h [8]: > 10 µM | viability at 24 h, 10 µM ([8]; General cell viability (% of control), highest tested concentration, 10 µM rotenone): ~80% | IC50 at 5 days ([3]; differentiation assay, 5 days exposure, > = highest tested concentration, read-out: IC50 general cytotoxicity (resazurin), unspec. EP): > 0.1 µM | viability at 5 days, 0.1 µM ([3]; highest tested rotenone concentration (100 nM), read-out: General viability (% of control)): 72% | Highest non-cytotoxic concentration (viability > 90%) [9]: 1.2 nM | IC50 (NT2 neurons; Homo sapiens, Neuron, 24 h, read-out: IC50 neurite outgrowth (spec. EP)): 0.55 µM | IC50 (NT2 neurons; Homo sapiens, Neuron, 24 h, read-out: IC50 spec. EP (neurite outgrowth)): 0.55 µM | activity at 0.123 µM (NT2 neurons; Homo sapiens, Neuron, read-out: Neurite outgrowth (% of control)): < 75% | Rescue by NAC, neurite outgrowth (NT2 neurons; [15]): no | Rescue by Y-27632, neurite outgrowth (NT2 neurons; [15]): Yes | viability at 44 h, 0.333 µM ([4]; highest tested rotenone concentration (333 nM), read-out: General viability (% of control)): > 70% | IC50 at 44 h [4, 12]: > 0.333 µM | ß-tubulin III-expression (% of control) ([5]; 1.2 nM rotenone, highest non-cytotoxic concentration): below 75% | IC50 ([5]; Homo sapiens): 0.00518 µM | Rescue by NAC, neuronal differentiation [5, 13]: no | Rescue by Y-27632, neuronal differentiation [5, 13]: No

CCCC(CCC)C(=O)[O-].[Na+] [Sodium valproate, Sodium; 2-propylpentanoate]
General viability (% of control), endpoint-specific control [10]: above 85% | Neuronal differentiation (% of control), endpoint-specific control [11]: less than 50%

Reference: article PMC8275550, “Developmental Neurotoxicity of Fipronil and Rotenone on a Human Neuronal In Vitro Test System” (Neurotoxicity Research, 2021)
